{"source": "paper PMC5365662", "about": "“A Short Double-Stapled Peptide Inhibits Respiratory Syncytial Virus Entry and Spreading” (Antimicrobial Agents and Chemotherapy, 2017)", "key": {"[1]": {"test_system": "rHRSV-mCherry in HEp-2 cells", "test": "rHRSV-mCherry inhibition assay", "type": "cell-based, human respiratory syncytial virus", "conditions": "Table 3 (Ala scan); HEp-2 cells, rHRSV-mCherry MOI 0.2, 2-fold serial dilutions (11 dilutions), duplicate; ± SD of fit", "experimental": "To measure the inhibitory activity of the peptide, the mCherry red fluorescence was quantified 48 h postinfection (p.i.).\nViral replication was quantified by measuring the mCherry fluorescence at 48 h p.i. and normalized based on the fluorescence of infected and untreated cells. (B) Cytotoxicity assay. HEp-2 cells were incubated in the presence of serial dilutions of peptides, and cell survival was quantified using the CellTiter-Glo Luminescent cell viability assay 24 h after the addition of the peptides. The signal was normalized based on the luminescence obtained for untreated cells. Error bars are standard deviations from duplicates.\nHEp-2 cells were seeded at 5 × 10^4 cells per well in a 96-well plate the day before the infection. Peptides were 2-fold serially diluted in dimethyl sulfoxide (DMSO) (11 dilutions) and then further diluted in EMEM without phenol red and preincubated for 15 to 20 min with rHRSV-mCherry ([24]) at a final dilution with an MOI of 0.2 ([24]). The cells were incubated with the virus-peptide mixtures for a period of 1.5 to 2 h. The medium was then replaced by EMEM without phenol red containing 2% fetal bovine serum and the same concentration of peptide as the one that was used during the infection step. Plates were incubated 48 h at 37°C, and the mCherry fluorescence was measured using a spectrofluorometer (Tecan infinite M200PRO) with excitation and emission wavelengths of 580 and 620 nm, respectively. Relative fluorescence was normalized by the fluorescence of nontreated infected cells. Noninfected HEp-2 cells were used as standards for fluorescence background levels. Each experiment was performed in duplicate and repeated at least twice. The resulting inhibition curves were fitted in Igor Pro as described above."}, "circular dichroism": {"test": "circular dichroism", "conditions": "10 mM phosphate; pH 7.5; 25 °C; 50 uM"}, "[2]": {"test_system": "5HB, a recombinant protein containing 3 HR1 domains covalently attached to 2 HR2 domains", "conditions": "for competition with binding of fluorescently labeled T108 to recombinant 5HB (in words): Ala-scan variants, FP; for Kd: competition with fluorescently labeled T108 probe (2 nM), 5HB 50 nM, 10 min preincubation + 30 min room temperature, duplicates", "from_the_text": "The RSV HR2 region (residues 476 to 524) is a 49-amino-acid sequence that has been extensively characterized (Fig. 1). HR2 is a largely unstructured peptide in aqueous solution folding into an α-helix upon binding to trimeric HR1 coiled coils ([20]). […] We reduced HR2 (aa 483 to 516) into three short overlapping subdomains (subdomains 1 to 3) (Fig. 1). These peptides were scanned for various stapling combinations. […] Far-UV circular dichroism (CD) spectropolarimetry was used to investigate the effect of stapling on the α-helical content of the peptides. […] To assess the propensity of the stapled peptides to hinder the formation of the postfusion six-helix bundle required for viral cell entry, we used a 5-helix bundle (5HB) biochemical fluorescence polarization (FP) competition assay as previously described ([21], [22]).\nThe coding sequence of 5HB was designed as described previously and de novo synthesized by Genscript ([21]). The HR1 (aa 126 to 182) and HR2 (aa 476 to 524) coding sequences from wild-type RSV A2 strain F ([36]) were codon optimized for overexpression in Escherichia coli and cloned at NdeI/BamHI restriction sites of pET-15b to generate the expression plasmid for 5HB. The 5HB expression construct was transformed into Escherichia coli BL21(DE3). Cells were grown at 37°C to an optical density at 600 nm of 0.8 followed by induction with isopropyl-1-thio-β-D-galactopyranoside at a final concentration of 0.5 mM for 12 to 15 h. Cells were harvested by centrifugation, washed twice with PBS, and resuspended in 20 ml of PBS (pH 7.4), 500 mM NaCl, and 1% Triton X-100 supplemented with complete protease inhibitor. Cell suspensions were disrupted by sonication. Cell debris was removed through ultracentrifugation at 18,000 × g for 1 h at 4°C, and clarified cell lysate was mixed with 1 ml of nickel-nitrilotriacetic acid (Ni-NTA) agarose beads (Qiagen) preequilibrated with 20 ml of lysis buffer. The suspension was agitated for 1 h at 4°C and loaded onto a 5-ml polypropylene column (Qiagen). The column was washed twice with 8 ml of PBS (pH 7.4), 500 mM NaCl, 1% Triton X-100, and 100 mM imidazole. Proteins were eluted with 5 × 500 μl of a buffer containing PBS (pH 7.4), 300 mM imidazole, and 500 mM NaCl. The imidazole was removed by dialysis, and protein purity was assessed by SDS-polyacrylamide gel electrophoresis followed by Coomassie blue staining. Protein concentration was determined with the Qubit 2.0 Fluorometer (Life Technologies).\nThe T108 ([12]) peptide probe was synthesized by standard SPPS procedures using HCTU as a coupling reagent as described above. A 10-μl volume of recombinant 5HB protein in FP buffer (20 mM PBS [pH 7.4], 500 mM NaCl, 0.01% [vol/vol] Tween 20, and 0.05 mg/ml bovine gamma globulin) was preincubated for 10 min at room temperature with 10 μl of the appropriate concentration of the inhibitor, after which 10 μl of fluorescein isothiocyanate (FITC)-T106 was added and further incubated for 30 min at room temperature. The final concentrations of protein and probe were 50 nM and 2 nM, respectively. The fluorescence polarization assay was performed in 384-well plates using a Spectramax Paradigm (Molecular Devices), using excitation and emission wavelengths of 485 nm and 535 nm, respectively. The acquisition time was 700 ms, and the read height was 1 mm. All experiments were performed in duplicate. […] In order to ensure robust fitting for some fits, r0 was kept constant at the value measured for the free tracer in buffer."}}, "note": "Bridge positions count the residues as written; N and C are the ends. Square brackets hold non-standard residues; d marks the D form. Peptide text beside a SMILES is read from it. R8 = C=CCCCCCC[C@@](C)(N)C(=O)O; S5 = C=CCCC[C@](C)(N)C(=O)O", "data": [{"smiles": "CC[C@H](C)[C@H](NC(=O)[C@H](CCCCN)NC(=O)[C@H](CCC(=O)O)NC(C)=O)C(=O)N[C@@]1(C)CCCC=CCCC[C@@](C)(C(=O)N[C@@H](Cc2ccccc2)C(=O)N[C@@H](C)C(=O)N[C@@]2(C)CCCC=CCCC[C@@](C)(C(=O)N[C@@H](CC(C)C)C(=O)N[C@@H](CC(C)C)C(=O)N[C@@H](Cc3c[nH]cn3)C(=O)N[C@@H](CC(N)=O)C(=O)N[C@H](C(N)=O)C(C)C)NC(=O)[C@H](CC(=O)O)NC(=O)[C@H](CO)NC(=O)[C@H](CCCCN)NC2=O)NC(=O)[C@H](CC(C)C)NC(=O)[C@H](CO)NC(=O)[C@H](CCC(N)=O)NC1=O", "note": "[Peptide I506A] (Ac-EKI[S5]QSL[S5]FA[S5]KSD[S5]LLHNV-NH2; staple 4-8, 11-15)", "values": [{"measurement": "EC50", "setting": "[1]", "result": "10.4 ± 2.97", "unit": "µM"}, {"measurement": "helicity", "setting": "circular dichroism", "result": 22, "unit": "%"}, {"measurement": "competition with binding of fluorescently labeled T108 to recombinant 5HB (in words)", "setting": "[2]", "result": "none of these variants were able to compete"}]}, {"smiles": "CC[C@H](C)[C@@H]1NC(=O)[C@H](Cc2ccccc2)NC(=O)[C@@](C)(NC(=O)[C@H](CC(C)C)NC(=O)[C@H](CO)NC(=O)[C@H](CCC(N)=O)NC(=O)[C@H](CC(N)=O)NC(=O)[C@@H](NC(=O)[C@H](CCCCN)NC(=O)[C@H](CCC(=O)O)NC(C)=O)[C@@H](C)CC)CCCC=CCCC[C@@](C)(C(=O)N[C@@H](CO)C(=O)N[C@@H](CC(=O)O)C(=O)N[C@@]2(C)CCCC=CCCC[C@@](C)(C(=O)N[C@H](C(N)=O)C(C)C)NC(=O)[C@H](Cc3c[nH]cn3)NC(=O)[C@H](CC(C)C)NC(=O)[C@H](CC(C)C)NC2=O)NC(=O)[C@H](C)NC1=O", "note": "[Peptide R507A] (Ac-EKINQSL[S5]FIA[S5]SD[S5]LLH[S5]V-NH2; staple 8-12, 15-19)", "values": [{"measurement": "EC50", "setting": "[1]", "result": 175, "unit": "µM"}, {"measurement": "helicity", "setting": "circular dichroism", "result": 45, "unit": "%"}, {"measurement": "competition with binding of fluorescently labeled T108 to recombinant 5HB (in words)", "setting": "[2]", "result": "none of these variants were able to compete"}]}, {"smiles": "CC[C@H](C)[C@H](NC(=O)[C@H](Cc1ccccc1)NC(=O)[C@]1(C)CCCC=CCCC[C@](C)(NC(=O)[C@@H](NC(=O)[C@H](CCCCN)NC(=O)[C@H](CCC(=O)O)NC(C)=O)[C@@H](C)CC)C(=O)N[C@@H](CCC(N)=O)C(=O)N[C@@H](CO)C(=O)N[C@@H](CC(C)C)C(=O)N1)C(=O)N[C@@]1(C)CCCC=CCCC[C@@](C)(C(=O)N[C@@H](CC(C)C)C(=O)N[C@@H](CC(C)C)C(=O)N[C@@H](Cc2c[nH]cn2)C(=O)N[C@@H](CC(N)=O)C(=O)N[C@H](C(N)=O)C(C)C)NC(=O)[C@H](CC(=O)O)NC(=O)[C@H](CO)NC(=O)[C@H](C)NC1=O", "note": "[Peptide K508A] (Ac-EKI[S5]QSL[S5]FI[S5]ASD[S5]LLHNV-NH2; staple 4-8, 11-15)", "values": [{"measurement": "EC50", "setting": "[1]", "result": "10.9 ± 13.9", "unit": "µM"}, {"measurement": "helicity", "setting": "circular dichroism", "result": 76, "unit": "%"}, {"measurement": "competition with binding of fluorescently labeled T108 to recombinant 5HB (in words)", "setting": "[2]", "result": "none of these variants were able to compete"}]}, {"smiles": "CC[C@H](C)[C@H](NC(=O)[C@H](Cc1ccccc1)NC(=O)[C@]1(C)CCCC=CCCC[C@](C)(NC(=O)[C@@H](NC(=O)[C@H](CCCCN)NC(=O)[C@H](CCC(=O)O)NC(C)=O)[C@@H](C)CC)C(=O)N[C@@H](CCC(N)=O)C(=O)N[C@@H](CO)C(=O)N[C@@H](CC(C)C)C(=O)N1)C(=O)N[C@@]1(C)CCCC=CCCC[C@@](C)(C(=O)N[C@@H](CC(C)C)C(=O)N[C@@H](CC(C)C)C(=O)N[C@@H](Cc2c[nH]cn2)C(=O)N[C@@H](CC(N)=O)C(=O)N[C@H](C(N)=O)C(C)C)NC(=O)[C@H](CC(=O)O)NC(=O)[C@H](C)NC(=O)[C@H](CCCCN)NC1=O", "note": "[Peptide S509A] (Ac-EKI[S5]QSL[S5]FI[S5]KAD[S5]LLHNV-NH2; staple 4-8, 11-15)", "values": [{"measurement": "EC50", "setting": "[1]", "result": "82 ± 1.56", "unit": "µM"}, {"measurement": "helicity", "setting": "circular dichroism", "result": 62, "unit": "%"}, {"measurement": "competition with binding of fluorescently labeled T108 to recombinant 5HB (in words)", "setting": "[2]", "result": "none of these variants were able to compete"}]}, {"smiles": "CC[C@H](C)[C@H](NC(=O)[C@H](Cc1ccccc1)NC(=O)[C@]1(C)CCCC=CCCC[C@](C)(NC(=O)[C@@H](NC(=O)[C@H](CCCCN)NC(=O)[C@H](CCC(=O)O)NC(=O)[C@H](CC(N)=O)NC(=O)[C@@H](NC(=O)[C@H](CCC(N)=O)NC(=O)[C@H](CO)NC(=O)[C@@H](NC(=O)[C@H](CCC(=O)O)NC(C)=O)[C@@H](C)CC)C(C)C)[C@@H](C)CC)C(=O)N[C@@H](CCC(N)=O)C(=O)N[C@@H](CO)C(=O)N[C@@H](CC(C)C)C(=O)N1)C(=O)N[C@@H](CCCNC(=N)N)C(N)=O", "note": "[Peptide 2b] (Ac-EISQVNEKI[S5]QSL[S5]FIR-NH2; staple 10-14)", "values": [{"measurement": "helicity", "setting": "circular dichroism", "result": 35.8, "unit": "%"}, {"measurement": "Kd", "setting": "[2]", "result": "369 ± 99", "unit": "µM"}]}, {"smiles": "CC[C@H](C)[C@H](NC(=O)[C@H](Cc1ccccc1)NC(=O)[C@]1(C)CCCC=CCCCCCC[C@@](C)(NC(=O)[C@H](CC(N)=O)NC(=O)[C@@H](NC(=O)[C@H](CCC(N)=O)NC(=O)[C@H](CO)NC(=O)[C@@H](NC(=O)[C@H](CCC(=O)O)NC(C)=O)[C@@H](C)CC)C(C)C)C(=O)N[C@@H](CCCCN)C(=O)N[C@@H]([C@@H](C)CC)C(=O)N[C@@H](CC(N)=O)C(=O)N[C@@H](CCC(N)=O)C(=O)N[C@@H](CO)C(=O)N[C@@H](CC(C)C)C(=O)N1)C(=O)N[C@@H](CCCNC(=N)N)C(N)=O", "note": "[Peptide 2e] (Ac-EISQVN[R8]KINQSL[S5]FIR-NH2; staple 7-14)", "values": [{"measurement": "helicity", "setting": "circular dichroism", "result": 27.4, "unit": "%"}, {"measurement": "Kd", "setting": "[2]", "result": "76 ± 4", "unit": "µM"}]}]}
